The values that follow come from patent US10538554B2, “Peptides and uses therefor as antiviral agents” (priority 2015, dated 2020).

Experiment [1] deals with H1N1 A/PR/8/1934. Nature of the experiment: microbe, parasite or virus in culture. The following applies: Influenza A virus, MDCK, read-out: IC50 PR8.
A further experiment deals with H9N2 A/Iran/16/2000. The following applies: 48 h.
Experiment [2] relates to avian influenza A virus H9N2. The settings on record: cited from earlier work.
Experiment [3] deals with H1N1 A1/Malaysia/302/1954. The settings on record: A1/Malaysia/302/1954, 48 h.
Another experiment has as its system H3N8 A/Miami/2/63. The settings on record: A/Miami/2/63, 48 h.
In the next experiment the test system is H3N2 A/HK/8/1968. The settings on record: A/HK/8/1968, 48 h.
The subject of another experiment is H1N1 A/NY/18/2009. The settings on record: A/NY/18/2009, 48 h; for % Inhibition Pdm 2009: 10 μM.
The subject of experiment [4] is H1N1 A/PR/8/1934. The settings on record: A/PR/8/1934, 48 h; for % Inhibition PR/8: 10 μM.
Experiment [5] relates to H5N1 A/Kampung pasir/5744/2004. The following applies: A/Kampung pasir/5744/2004, 48 h.

pIC50: −log10 of the molar value. Where two headings read alike, the source gives them in different places. Bridge positions count the residues as written; N and C are the ends. Square brackets hold non-standard residues; d marks the D form. Peptide text beside a SMILES is read from it.

On to `CCC(CC)O[C@@H]1C=C(C(=O)O)C[C@H](N)[C@H]1NC(C)=O` [Oseltamivir acid], for which the pIC50 (usually the negative decadic logarithm of the IC50, by convention in mol/L) with H1N1 A/PR/8/1934 [1] was 6.85.
In the experiment on H9N2 A/Iran/16/2000, `C[C@@H](O)[C@@H]1NC(=O)[C@H](CCCCN)NC(=O)[C@H](CO)NC(=O)[C@H](CCCNC(=N)N)NC(=O)[C@H](Cc2ccccc2)NC(=O)[C@H](CC(=O)O)NC(=O)[C@H](CC(N)=O)NC(=O)[C@@H](N)CSSC[C@@H](C(=O)O)NC1=O` [C-P1, H-CNDFRSKTC-OH, reference compound] (H-CNDFRSKTC-OH; disulfide 1-9) gave a pIC50 of less than 3.49. For the same compound, the “inhibition of avian influenza A virus H9N2 replication” value in [2] is listed as “modest efficacy”.
Take `CC[C@@H](C)[C@H]1NC(=O)[C@@H](Cc2ccccc2)NC(=O)[C@@H](Cc2ccccc2)NC(=O)[C@@H](Cc2ccccc2)NC(=O)[C@@H](Cc2c[nH]c3ccccc23)NC(=O)[C@@H]([C@H](C)O)NC(=O)[C@H](NC(=O)[C@H](CCCCN)NC(=O)[C@H](CCCCN)NC(=O)[C@H](CCCNC(=N)N)NC(=O)[C@@H](N)CCCNC(=N)N)CSSC[C@H](C(=O)O)NC(=O)[C@@H](CC(N)=O)NC1=O` [PSP IV A5, H-RRKKctwfffinc-OH] (H-RRKK[dC][dT][dW][dF][dF][dF][dI][dN][dC]-OH; disulfide 5-13): the pIC50 is 6.12 in the experiment with H9N2 A/Iran/16/2000; 6.52 in experiment [3]; 6.52 in the experiment on H3N8 A/Miami/2/63; 6.52 in the experiment on H3N2 A/HK/8/1968; 6.00 in the experiment on H1N1 A/NY/18/2009; 6.40 in the experiment on H1N1 A/PR/8/1934 [4]. This compound gave a pIC50 in [5] of 6.26. In addition, in the experiment on H9N2 A/Iran/16/2000 (10 μM), the “% inhibition H9N2” value is 93%. Also, the “% inhibition H1N1” value in experiment [3] (10 μM) came to 99%. Moreover, the “% inhibition H3N8” value with H3N8 A/Miami/2/63 (10 μM) is recorded as 98%. In the experiment on H3N2 A/HK/8/1968 (10 μM), the “% inhibition H3N2” value came to 99%. In addition, in the experiment on H1N1 A/NY/18/2009, the “% Inhibition Pdm 2009” value was 98%. The “% Inhibition PR/8” value with H1N1 A/PR/8/1934 [4] was 99%.
In the case of `CC[C@@H](C)[C@H]1NC(=O)[C@@H](Cc2ccccc2)NC(=O)[C@@H](CCCNC(=N)N)NC(=O)[C@@H](Cc2ccccc2)NC(=O)[C@@H](Cc2c[nH]c3ccccc23)NC(=O)[C@@H]([C@H](C)O)NC(=O)[C@H](NC(=O)[C@H](CCCCN)NC(=O)[C@H](CCCCN)NC(=O)[C@H](CCCNC(=N)N)NC(=O)[C@@H](N)CCCNC(=N)N)CSSC[C@H](C(=O)O)NC(=O)[C@@H](CC(N)=O)NC1=O` [PSP III B5, H-RRKKctwfrfinc-OH] (H-RRKK[dC][dT][dW][dF][dR][dF][dI][dN][dC]-OH; disulfide 5-13), the pIC50 with H9N2 A/Iran/16/2000 was 6.05; in experiment [3], 5.80; with H3N8 A/Miami/2/63, 6.82; in the experiment with H3N2 A/HK/8/1968 it was 5.85; in the experiment on H1N1 A/NY/18/2009, 5.93; with H1N1 A/PR/8/1934 [4], 5.92. In addition, the pIC50 in [5] is 6.66. In addition, the “% inhibition H9N2” value with H9N2 A/Iran/16/2000 (10 μM) was determined as 76%; with H9N2 A/Iran/16/2000 (50 μM), 90%. Also, the results for the “% inhibition H1N1” value in experiment [3] (10 μM) and in experiment [3] (50 μM) were 80% and 96%, respectively. The “% inhibition H3N8” value in the experiment with H3N8 A/Miami/2/63 (10 μM) was 92%; with H3N8 A/Miami/2/63 (50 μM) it was 100%. Also, the “% inhibition H3N2” value is 87% in the experiment on H3N2 A/HK/8/1968 (10 μM) and 100% in the experiment with H3N2 A/HK/8/1968 (50 μM). Also, in the experiment with H1N1 A/NY/18/2009, the “% Inhibition Pdm 2009” value is listed as 73%. For the same compound, the “% Inhibition PR/8” value with H1N1 A/PR/8/1934 [4] turned out to be 88%.
